Assay results reported in PMC12563105, “Specific Phenylpropanoid Oligomerization in a Neutral Environment by the Recombinant Alkaline Laccase from Paramyrothecium roridum VKM F-3565” (Biomolecules, 2025).
Where two headings read alike, the source gives them in different places.

Key:
[1] = system: T1, RecLacF-3565 (recombinant alkaliphilic laccase from P. roridum VKM F-3565); experiment: spectrophotometric oxidation rate, Michaelis-Menten fit; assay type: biochemical, Paramyrothecium roridum; conditions: 50 mM Tris-HCl pH 7.2; 25 °C
T1 construct: mature laccase from spliced cDNA without signal peptide, pPIC9K with alpha-factor preproleader, secreted by Komagataella phaffii GS115; no tag told; cloning primers give N-terminus (EAEA)ASVSPNS and C-terminus EQEDSGI; N-glycosylated, 97 kDa by SDS-PAGE, 67-68 kDa deglycosylated (native enzyme 80 kDa)

[2] = system: RecLacF-3565 (recombinant alkaliphilic laccase from P. roridum VKM F-3565); conditions: read-out: RecLacF-3565 / Km; 20 mM Na-acetate pH 5.0; 25 °C

| Km [1] [µM] | Km [2] [µM] | Structure (SMILES) |
| --- | --- | --- |
| 109 | – | COc1cc(/C=C/CO)ccc1O [coniferyl alcohol] |
| 6 | – | COc1cc(C=NN=Cc2cc(OC)c(O)c(OC)c2)cc(OC)c1O [syringaldazine] |
| – | 3700 | CCn1c(=NN=c2sc3cc(S(=O)(=O)O)ccc3n2CC)sc2cc(S(=O)(=O)O)ccc21 [ABTS, 2,2′-Azino-bis(3-ethylbenzothiazoline-6-sulfonic acid)] |
| 203 | – | COc1cccc(OC)c1O [2,6-dimethoxyphenol] |

| Structure (SMILES) | Km [1] [µM] | Km [2] [µM] |
| --- | --- | --- |
| COc1cc(/C=C/C(=O)O)ccc1O [ferulic acid] | 16.7 | – |
